In data set [1] the target is B. suis histidinol dehydrogenase (Brucella suis biovar 1, UniProt Q8G2R2). Briefly: biochemical. The data set is classed as biochemical.
The next data set concerns B. suis. Description: microbe, parasite or virus in culture. The data set is classed as cell-based, Brucella suis. As to conditions: for inhibition at 50 µM / inhibition at 100 µM: Brucella suis, 168 h, read-out: Effects on the growth of B. suis (%) (inhibition of bacterial growth).

The melting point is the temperature of the solid-liquid transition. What is called IC50 is the point on the concentration scale where inhibition reaches its midpoint. A high value points to weaker potency. By inhibition is commonly meant the change of the read-out against control, counted positive when it falls.

Chain of B. suis histidinol dehydrogenase (Q8G2R2 whole entry, looked up): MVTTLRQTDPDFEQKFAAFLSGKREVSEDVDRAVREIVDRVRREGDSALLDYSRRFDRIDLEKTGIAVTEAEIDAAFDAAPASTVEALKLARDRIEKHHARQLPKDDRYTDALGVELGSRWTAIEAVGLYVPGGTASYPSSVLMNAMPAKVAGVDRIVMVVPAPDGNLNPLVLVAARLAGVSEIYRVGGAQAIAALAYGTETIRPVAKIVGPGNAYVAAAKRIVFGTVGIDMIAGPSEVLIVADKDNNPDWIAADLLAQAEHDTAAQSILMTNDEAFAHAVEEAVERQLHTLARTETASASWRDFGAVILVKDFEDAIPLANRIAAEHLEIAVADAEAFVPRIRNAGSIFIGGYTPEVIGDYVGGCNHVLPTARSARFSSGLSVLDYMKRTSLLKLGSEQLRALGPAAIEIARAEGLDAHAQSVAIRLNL

Consider `N[C@@H](Cc1c[nH]cn1)C(=O)Cc1ccc(CCc2ccccc2)cc1` (hydrate or solvate) [Compound 2i, (3S)-3-amino-4-(1H-imidazol-4-yl)-1-[4-(2-phenylethyl)phenyl] butan-2-one dihydrochlorhydrate], for which the melting point lay within 168 to 170 °C.
Same read-out and setting: under `N[C@@H](Cc1c[nH]cn1)C(=O)Cc1ccc(-c2ccc(Br)cc2)cc1` (hydrate or solvate) stands 199 °C (dec.); under `N[C@@H](Cc1c[nH]cn1)C(=O)Cc1ccc(/C=C/c2ccc(C(F)(F)F)cc2)cc1` (hydrate or solvate) [Compound 2l, (3S)-3-amino-4-(1H-imidazol-4-yl)-1-(4-{(E)-2-[4-(trifluoromethyl)phenyl]vinyl}phenyl) butan-2-one dihydrochlorhydrate], 186 °C (dec.); under `N[C@@H](Cc1c[nH]cn1)C(=O)Cc1ccc(C#Cc2ccc(-c3ccccc3)cc2)cc1` (hydrate or solvate), 196 °C (dec.).
Compound `CC(C)(C)c1ccc(C#Cc2ccc(CC(=O)[C@@H](N)Cc3c[nH]cn3)cc2)cc1` [Compound 3c, (3S)-3-amino-1-{4-[(4-tert-butylphenyl)ethynyl]phenyl}-4-(1H-imidazol-4-yl)butan-2-one dihydrochlorhydrate] came in with an IC50 in data set [1] of 0.065 µM. Besides, in the data set on B. suis, the inhibition at 50 µM amounted to 30% and the inhibition at 100 µM is 30%.
As to `N[C@@H](Cc1c[nH]cn1)C(=O)Cc1ccc(-c2ccc(C(F)(F)F)cc2)cc1` [Compound 2d, (3S)-3-amino-4-(1H-imidazol-4-yl)-1-[4′-(trifluoromethyl)biphenyl-4-yl]butan-2-one dihydrochlorhydrate], the IC50 in data set [1] amounted to 0.03 µM. In the data set with B. suis, the inhibition at 50 µM came out at 70% and the inhibition at 100 µM came out at 90%.
In data set [1], `N[C@@H](Cc1c[nH]cn1)C(=O)Cc1ccc(/C=C/Cc2ccccc2)cc1` [Compound 2m, (3S)-3-amino-4-(1H-imidazol-4-yl)-1-{4-[(1E)-3-phenylprop-1-en-1-yl]phenyl}butan-2-one dihydrochlorhydrate] returned an IC50 of 0.03 µM.
Compound `N[C@@H](Cc1c[nH]cn1)C(=O)Cc1ccc(-c2ccc(Oc3ccccc3)cc2)cc1` [Compound 2f, (3S)-3-amino-4-(1H-imidazol-4-yl)-1-(4′-phenoxybiphenyl-4-yl)butan-2-one dihydrochlorhydrate] yielded an IC50 in data set [1] of 0.07 µM. For the same compound, in the data set with B. suis, the inhibition at 50 µM came out at 70% and the inhibition at 100 µM was 90%.
In the case of `COc1ccc(-c2ccc(CC(=O)[C@@H](N)Cc3c[nH]cn3)cc2)cc1` (hydrate or solvate) [Compound 2c, (3S)-3-amino-4-(1H-imidazol-4-yl)-1-(4′-methoxybiphenyl-4-yl)butan-2-one dihydrochlorhydrate], the melting point is 210 °C (dec.).
Consider `Cc1ccc(/C=C/c2ccc(CC(=O)[C@@H](N)Cc3c[nH]cn3)cc2)cc1` [Compound 2k, (3S)-3-amino-4-(1H-imidazol-4-yl)-1-{4-[(E)-2-(4-methylphenyl)vinyl]phenyl}butan-2-one dihydrochlorhydrate], for which, in data set [1], inhibition was half-maximal at 0.04 µM (IC50). In addition, in the data set on B. suis, the “Inhibition of the growth of the bacteria in liquid medium” value was “completely inhibit”, the inhibition at 50 µM stood at 100% and the inhibition at 100 µM is 100%.
Take `COc1ccc(-c2ccc(CC(=O)[C@@H](N)Cc3c[nH]cn3)cc2)cc1` [Compound 2c, (3S)-3-amino-4-(1H-imidazol-4-yl)-1-(4′-methoxybiphenyl-4-yl)butan-2-one dihydrochlorhydrate]: the half-inhibitory concentration (IC50) in data set [1] came out at 0.02 µM. In the data set with B. suis, the inhibition at 50 µM came out at 30% and the inhibition at 100 µM came out at 60%.
For `CCCCc1ccc(-c2ccc(CC(=O)[C@@H](N)Cc3c[nH]cn3)cc2)cc1` [Compound 2b, (3S)-3-amino-1-(4′-butylbiphenyl-4-yl)-4-(1H-imidazol-4-yl) butan-2-one dihydrochlorhydrate] the same measures were 0.04 µM, 50% and 60%.
On to `Cc1ccc(/C=C/c2ccc(CC(=O)[C@@H](N)Cc3c[nH]cn3)cc2)cc1` (hydrate or solvate) [Compound 2k, (3S)-3-amino-4-(1H-imidazol-4-yl)-1-{4-[(E)-2-(4-methylphenyl)vinyl]phenyl}butan-2-one dihydrochlorhydrate], for which the melting point was 200 °C (dec.).
Compound `Cc1ccc(C#Cc2ccc(CC(=O)[C@@H](N)Cc3c[nH]cn3)cc2)cc1` [Compound 3b, (3S)-3-amino-4-(1H-imidazol-4-yl)-1-{4-[(4-methylphenyl)ethynyl]phenyl}butan-2-one dihydrochlorhydrate] returned an IC50 in data set [1] of 0.04 µM.
For `Cc1ccc(-c2ccc(CC(=O)[C@@H](N)Cc3c[nH]cn3)cc2)cc1` (hydrate or solvate) [Compound 2a, (3S)-3-amino-4-(1H-imidazol-4-yl)-1-(4′-methylbiphenyl-4-yl)butan-2-one dihydrochlorhydrate], the melting point is 203 °C (dec.).
Same read-out and setting: for `N[C@@H](Cc1c[nH]cn1)C(=O)Cc1ccc(/C=C/c2ccccc2)cc1` (hydrate or solvate) [Compound 2j, (3S)-3-amino-4-(1H-imidazol-4-yl)-1-{4-[(E)-2-phenylvinyl]phenyl}butan-2-one dihydrochlorhydrate] the value was 195 °C (dec.).
The same measure, in the same setting: for `N[C@@H](Cc1c[nH]cn1)C(=O)Cc1ccc(-c2ccc(Oc3ccccc3)cc2)cc1` (hydrate or solvate) [Compound 2f, (3S)-3-amino-4-(1H-imidazol-4-yl)-1-(4′-phenoxybiphenyl-4-yl)butan-2-one dihydrochlorhydrate] the value was 198 to 200 °C; for `N[C@@H](Cc1c[nH]cn1)C(=O)Cc1ccc(C#Cc2ccccc2)cc1` (hydrate or solvate) [Compound 3a, (3S)-3-amino-4-(1H-imidazol-4-yl)-1-[4-(phenylethynyl)phenyl] butan-2-one dihydrochlorhydrate], 194 °C (dec.).
With `CCCCCc1ccc(C#Cc2ccc(CC(=O)[C@@H](N)Cc3c[nH]cn3)cc2)cc1` (hydrate or solvate) [Compound 3d, (3S)-3-amino-4-(1H-imidazol-4-yl)-1-{4-[(4-pentylphenyl)ethynyl]phenyl}butan-2-one dihydrochlorhydrate], the melting point was 184 °C (dec.).
`Cc1ccc(-c2ccc(CC(=O)[C@@H](N)Cc3c[nH]cn3)cc2)cc1` [Compound 2a, (3S)-3-amino-4-(1H-imidazol-4-yl)-1-(4′-methylbiphenyl-4-yl)butan-2-one dihydrochlorhydrate] came in with an IC50 in data set [1] of 0.03 µM. In the data set with B. suis, the inhibition at 50 µM is 30% and the inhibition at 100 µM was 40%.
`N[C@@H](Cc1c[nH]cn1)C(=O)Cc1ccc(/C=C/Cc2ccccc2)cc1` (hydrate or solvate) [Compound 2m, (3S)-3-amino-4-(1H-imidazol-4-yl)-1-{4-[(1E)-3-phenylprop-1-en-1-yl]phenyl}butan-2-one dihydrochlorhydrate] yielded a melting point of 178 to 180 °C.
Still for that read-out and setting: for `N[C@@H](Cc1c[nH]cn1)C(=O)Cc1ccc(-c2ccc3ccccc3c2)cc1` (hydrate or solvate) [Compound 2h, (3S)-3-amino-4-(1H-imidazol-4-yl)-1-[4-(2-naphthhyl)phenyl] butan-2-one dihydrochlorhydrate] the value was 205 °C (dec.).
With `CCCCCc1ccc(C#Cc2ccc(CC(=O)[C@@H](N)Cc3c[nH]cn3)cc2)cc1` [Compound 3d, (3S)-3-amino-4-(1H-imidazol-4-yl)-1-{4-[(4-pentylphenyl)ethynyl]phenyl}butan-2-one dihydrochlorhydrate], the IC50 in data set [1] came out at 0.0085 µM. Moreover, in the data set on B. suis, the inhibition at 50 µM worked out at 30% and the inhibition at 100 µM came out at 30%.
In the case of `N[C@@H](Cc1c[nH]cn1)C(=O)Cc1ccc(-c2ccc(C(F)(F)F)cc2)cc1` (hydrate or solvate) [Compound 2d, (3S)-3-amino-4-(1H-imidazol-4-yl)-1-[4′-(trifluoromethyl)biphenyl-4-yl]butan-2-one dihydrochlorhydrate], the melting point was 149 °C (dec.).
On the same count and under the same terms, for `CCCCc1ccc(-c2ccc(CC(=O)[C@@H](N)Cc3c[nH]cn3)cc2)cc1` (hydrate or solvate) [Compound 2b, (3S)-3-amino-1-(4′-butylbiphenyl-4-yl)-4-(1H-imidazol-4-yl) butan-2-one dihydrochlorhydrate] the value was 155 °C (dec.).
Regarding `N[C@@H](Cc1c[nH]cn1)C(=O)Cc1ccc(/C=C/c2ccccc2)cc1` [Compound 2j, (3S)-3-amino-4-(1H-imidazol-4-yl)-1-{4-[(E)-2-phenylvinyl]phenyl}butan-2-one dihydrochlorhydrate], inhibition in data set [1] was half-maximal at 0.025 µM (IC50).
With `Cc1ccc(C#Cc2ccc(CC(=O)[C@@H](N)Cc3c[nH]cn3)cc2)cc1` (hydrate or solvate) [Compound 3b, (3S)-3-amino-4-(1H-imidazol-4-yl)-1-{4-[(4-methylphenyl)ethynyl]phenyl}butan-2-one dihydrochlorhydrate], the melting point was 181 °C (dec.).
Same read-out and setting: under `N[C@@H](Cc1c[nH]cn1)C(=O)Cc1ccc(-c2ccc(-c3ccccc3)cc2)cc1` (hydrate or solvate) stands 200 °C (dec.); under `N[C@@H](Cc1c[nH]cn1)C(=O)Cc1ccc(/C=C/c2ccc(-c3ccccc3)cc2)cc1` (hydrate or solvate), 200 °C (dec.).
`N[C@@H](Cc1c[nH]cn1)C(=O)Cc1ccc(/C=C/c2ccc(C(F)(F)F)cc2)cc1` [Compound 2l, (3S)-3-amino-4-(1H-imidazol-4-yl)-1-(4-{(E)-2-[4-(trifluoromethyl)phenyl]vinyl}phenyl) butan-2-one dihydrochlorhydrate] gave an IC50 in data set [1] of 0.065 µM. That is a double-digit nanomolar value.
The same measure, in the same setting: for `N[C@@H](Cc1c[nH]cn1)C(=O)Cc1ccc(CCc2ccccc2)cc1` [Compound 2i, (3S)-3-amino-4-(1H-imidazol-4-yl)-1-[4-(2-phenylethyl)phenyl] butan-2-one dihydrochlorhydrate] the value was 0.013 µM.

The values above are taken from patent US8372871B2, “Histidinol dehydrogenase inhibitors, and use thereof as medicaments” (priority 2008, dated 2013).
